# Measured values published in patent publication US20170165286A1, “COMPOSITIONS AND METHODS FOR TREATING DIABETES AND LIVER DISEASES” (Cempra Pharmaceuticals, Inc., priority 2014, published 2017).
# Assays:
# [1] = QT / tQT effects and plasma levels; type: in vivo
# Description: The compounds described herein, including solithromycin, are effective in treating host animals with high cardiovascular disease risk.
# [2] = test system: BLM-induced pulmonary fibrosis model mice; assay: Bleomycin-induced lung injury: BALF analysis, body weight; type: in vivo; settings: for BALF Eosinophil / BALF Lymphocytes / BALF Macrophages / BALF Neutrophil / BALF Total cells: oral q.d. day −2 to 6
# Description: Bleomycin-Induced Lung Injury. Lung inflammation is induced in female mice by a single intratracheal administration of bleomycin. Twenty mice are divided into two groups. […] It is to be understood herein that 100 mg/kg in mice is generally considered to be equivalent to a 450-500 mg, such as 480 mg, dose in humans. Animals are sacrificed on Day 7.
# Pathogen-free 7 weeks old female C57BL/6J mice are obtained from CLEA Japan (Tokyo, Japan) and allowed to acclimate at least 6 days. On day 0, twenty mice are induced to develop pulmonary fibrosis by a single intratracheal administration of bleomycin sulphate (BLM, Nippon Kayaku, Japan) in 0.9% saline in a volume of 50 μL per animal using a Microsprayer® (Penn-Century, USA). Individual body weight is measured daily during the experiment period. Survival, clinical signs and behavior of mice is monitored daily.
# Solithromycin Reduces Inflammation In Mice Caused By Bleomycin-Induced Lung Injury. Pulmonary fibrosis is a problem in the management of patients who have received chemotherapy for malignancies particularly with regimens that contain bleomycin (BLM), methotrexate, cyclophosphamide, and many new agents. These patients are susceptible to pulmonary infections as well as to inflammation from pulmonary injury. […] The effects of solithromycin on the ability to prevent lung inflammation and fibrosis is described in a bleomycin induced-lung inflammation and fibrosis model. Group 1 (BLM-Vehicle): Ten BLM-induced pulmonary fibrosis model mice are orally administered vehicle (Carboxymethyl cellulose) at a volume of 10 mL/kg once daily from day −2 (two days before BLM administration) to day 6. […]
# BALF samples were collected by flushing the lung via the trachea with sterile PBS three times (0.8 mL each). The first lavage was kept separate from the other two. BALF was centrifuged at 1,000×g for 3 minutes at 4° C. and the supernatant was collected and stored at −80° C. until use. The cell pellet from the first fraction and the remaining fractions of lavage fluid were pooled. Total cell number of BALF was counted with a hemocytometer and the cell differentials were determined by cytospin preparation stained with Diff-Quick (Sysmex, Japan). A differential cell count was performed on up to about 200 cells.
# MMP-9 in the BALF was quantified by the Mouse Total MMP-9 Quantikine ELISA Kit (R&D Systems, USA).
# Analyses of BALF (bronchoalveolar lavage fluid). The cells in BALF are counted with a hemocytometer, and cell differentials are determined in cytospin preparations stained with Diff-Quik (Sysmex, Japan) MMP-9 in the supernatants from BALF are quantified by an enzyme-linked immunosorbent assay (ELISA; Cat# MMPT90, R&D Systems, USA). Histopathological assays for lung sections are performed according to standard methods. Masson's Trichrome staining and estimation of Ashcroft Score includes HE staining. Gene expression assays using total RNA from the lung are obtained using real-time RT-PCR analyses performed for TNF-α, MCP-1 and MMP-9.
# [3] = Phase 1 study in subjects with hepatic impairment: safety; type: in vivo, humans; settings: for Number of subjects reporting treatment-emergent AEs: 800 mg Day 1, 400 mg Days 2-5
# Description: Safety of solithromycin in humans with hepatic insufficiency.
# Safety and Pharmacokinetics of solithromycin in Subjects with Hepatic Impairment. The safety, pharmacokinetics (PK), and protein binding of solithromycin was evaluated in subjects with mild, moderate, and severe hepatic impairment compared to healthy subjects with normal hepatic function (matched for age, weight, and gender). The evaluation was performed in a Phase 1, open-label, multiple-dose study in subjects with mild (Child-Pugh Class A), moderate (Child-Pugh Class B), and severe (Child-Pugh Class C) hepatic impairment and healthy matched control subjects with normal hepatic function. All subjects received a once-daily dose of 800 mg on Day 1 followed by 400 mg on Days 2 through 5.
# 33 subjects were enrolled: 8 with mild impairment (mean Child-Pugh score 5.625), 8 with moderate impairment (mean Child-Pugh score 7.375), 8 with severe impairment (mean Child-Pugh score 10.625), and 9 healthy controls with normal hepatic function. One subject, a healthy control, discontinued study drug after 2 doses due to a rash; all other subjects (n=32) completed the study. Overall, the number of subjects reporting treatment-emergent AEs in the hepatic impaired cohorts (mild n=1, moderate n=4, severe n=4) was no greater than in the control group (n=4).
# [4] = bleomycin mice, heading says 50 mg/kg q.d.
# [5] = bleomycin mice, heading says 50 mg/kg q.d., listed as SOLI
structure (smiles),measurement,setting,value
CC[C@H]1OC(=O)[C@@](C)(F)C(=O)[C@H](C)[C@@H](O[C@@H]2O[C@H](C)C[C@H](N(C)C)[C@H]2O)[C@](C)(OC)C[C@@H](C)C(=O)[C@H](C)[C@H]2N(CCCCn3cc(-c4cccc(N)c4)nn3)C(=O)O[C@]12C [solithromycin],Plasma levels achieved,[1]; PK analysis in QT evaluation,2000 to 3000 ng/mL
same,QT or tQT prolongation,[1]; dosed orally or intravenously,does not show any QT or tQT prolongation
same,MMP-9 expression,"[2]; bleomycin mice BALF (ELISA), heading says 50 mg/kg q.d.",decreasing trend
same,Body weight changes compared to vehicle group,"[2]; bleomycin mice, any day and day of sacrifice",no significant differences
same,BALF Eosinophil,[2]; [4],significantly decreased
same,BALF Lymphocytes,[2]; [4],significantly decreased
same,BALF Macrophages,[2]; [4],no significant difference
same,BALF Neutrophil,[2]; [4],significantly decreased
same,BALF Total cells,[2]; [4],significantly decreased
same,BALF Eosinophil,[2]; [5],0.3 ± 0.2 × 10^4
same,BALF Lymphocytes,[2]; [5],3.9 ± 1.9 × 10^4
same,BALF Macrophages,[2]; [5],16.9 ± 9.6 × 10^4
same,BALF Neutrophil,[2]; [5],0.7 ± 0.4 × 10^4
same,BALF Total cells,[2]; [5],2.2 ± 1.2 × 10^5
same,Most commonly reported AEs,[3]; all cohorts,mild diarrhea and mild headache
same,Mean changes from baseline in liver function tests on Day 8,"[3]; any cohort, after 5 days of administration",not clinically significant
same,ALT mean (±SD) change from baseline on Day 8,[3]; control cohort,2.6±4.47 IU/L
same,AST mean (±SD) change from baseline on Day 8,[3]; control cohort,−0.6±2.92 IU/L
same,Direct bilirubin mean (±SD) change from baseline on Day 8,[3]; control cohort,0.00 ± 0.053 mg/dL
same,Number of subjects reporting treatment-emergent AEs,[3]; healthy control group (9 enrolled),4
same,Safety compared to healthy controls,"[3]; humans with hepatic impairment, same doses",no significant differences in safety
same,Tolerability,"[3]; humans with mild, moderate and severe hepatic impairment, doses as high as 800 mg",well tolerated
same,ALT mean (±SD) change from baseline on Day 8,[3]; mild hepatic impairment,4.0±8.00 IU/L
same,AST mean (±SD) change from baseline on Day 8,[3]; mild hepatic impairment,0.4±5.93 IU/L
same,Direct bilirubin mean (±SD) change from baseline on Day 8,[3]; mild hepatic impairment,0.00 ± 0.076 mg/dL
same,Number of subjects reporting treatment-emergent AEs,[3]; mild hepatic impairment (8 enrolled),1
same,ALT mean (±SD) change from baseline on Day 8,[3]; moderate hepatic impairment,7.8±6.92 IU/L
same,AST mean (±SD) change from baseline on Day 8,[3]; moderate hepatic impairment,0.1±10.56 IU/L
same,Direct bilirubin mean (±SD) change from baseline on Day 8,[3]; moderate hepatic impairment,0.03 ± 0.046 mg/dL
same,Number of subjects reporting treatment-emergent AEs,[3]; moderate hepatic impairment (8 enrolled),4
same,ALT mean (±SD) change from baseline on Day 8,[3]; severe hepatic impairment,6.3±14.61 IU/L
same,AST mean (±SD) change from baseline on Day 8,[3]; severe hepatic impairment,5.8±22.44 IU/L
same,Direct bilirubin mean (±SD) change from baseline on Day 8,[3]; severe hepatic impairment,0.04 ± 0.207 mg/dL
same,Number of subjects reporting treatment-emergent AEs,[3]; severe hepatic impairment (8 enrolled),4
